Measurements published in publication PMC9653173, “Trotabresib (CC-90010) in combination with adjuvant temozolomide or concomitant temozolomide plus radiotherapy in patients with newly diagnosed glioblastoma” (Neuro-Oncology Advances, 2022).
Where two headings read alike, the source gives them in different places.

What was measured:
MYC = settings: in vitro; cited from earlier work
rhabdomyosarcoma cells = system: rhabdomyosarcoma cells; set-up: method as in PMID 32200036; settings: cited from earlier work
glioblastoma = system: glioblastoma; set-up: method as in earlier work; settings: study discontinued; cited from earlier work
[1] = system: patients with newly diagnosed glioblastoma
Text: The phase Ib, dose-escalation part of this study explored escalating oral doses of trotabresib in combination with TMZ in the adjuvant setting and with TMZ plus RT in the concomitant setting. […] Dose-escalation decisions were made by the safety review committee, based on all available safety, pharmacokinetics, pharmacodynamics, and preliminary efficacy information, and a calculation of risk assessment using a Bayesian logistic regression model.
The primary endpoints of the study were to determine the safety and tolerability, maximum tolerated dose, and/or recommended phase II dose (RP2D) of trotabresib in combination with TMZ as adjuvant therapy, and with TMZ and RT as concomitant therapy. […] Trotabresib pharmacodynamics was an exploratory endpoint.
Adverse events (AEs) were classified using the Medical Dictionary for Regulatory Activities v18.1 or higher system organ class and preferred term. Severity of AEs was graded based on the patient’s symptoms according to the National Cancer Institute Common Terminology Criteria for Adverse Events v5.0.[35] Dose-limiting toxicities (DLTs) were defined as any of the toxicities described in Supplementary Table S2 occurring within the DLT assessment period (cycle 1 [28 days]), unless the event could clearly be determined to be unrelated to trotabresib. Screening MRI scans were performed after surgical resection and within 28 days (+3 days) prior to initiation of study treatment. Subsequent tumor assessments by MRI or CT were performed at week 10 during the concomitant treatment period and at the end of every other treatment cycle from cycle 2 onwards during the adjuvant and trotabresib monotherapy treatment periods. Best overall response (BOR) was evaluated as complete response (CR), partial response (PR), SD, progressive disease (PD), or not evaluable, according to Response Assessment in Neuro-Oncology criteria for high-grade glioma.[36] Plasma samples were collected during the first treatment cycle for investigation of trotabresib pharmacokinetics and pharmacodynamics. Plasma pharmacokinetic parameters assessed included peak plasma concentration (Cmax), time to peak plasma concentration (tmax), area under the plasma concentration–time curve (AUC), and terminal half-life (t½). Pharmacodynamic markers assessed included blood levels of CCR1 and HEXIM1 mRNA, which are established markers of BET inhibitor target engagement.[17],[22],[37],[38]

breast cancer cells = system: breast cancer cells; set-up: method as in PMID 32848091; settings: cited from earlier work
[2] = adjuvant overall (N = 18), related to labelled drug(s)
[3] = concomitant overall (N = 14), related to labelled drug(s)

Cc1sc2c(c1C)C(c1ccc(Cl)cc1)=N[C@@H](CC(=O)OC(C)(C)C)c1nnc(C)n1-2 [JQ1, reference compound]
MYC expression (MYC): downregulated in vitro

Cc1sc2c(c1C)C(c1ccc(Cl)cc1)=N[C@@H](CC(=O)Nc1ccc(O)cc1)c1nnc(C)n1-2 [OTX015]
Antitumor activity as a single agent (rhabdomyosarcoma cells): demonstrated antitumor activity as a single agent | Effect on ionizing radiation (rhabdomyosarcoma cells): potentiated the effects of ionizing radiation | Clinical activity (primary endpoint 6-month PFS) (glioblastoma): lack of clinical activity

Cn1nnc2c(C(N)=O)ncn2c1=O [TMZ, temozolomide]
ALT increased TRAE, grade 3/4 [1, 2]: 1 (6) n (%) | AST increased TRAE, any grade [1, 2]: 2 (11) n (%) | AST increased TRAE, grade 3/4 [1, 2]: 0 n (%) | Acneiform dermatitis TRAE, any grade [1, 2]: 1 (6) n (%) | Acneiform dermatitis TRAE, grade 3/4 [1, 2]: 0 n (%) | Anemia TRAE, any grade [1, 2]: 3 (17) n (%) | Anemia TRAE, grade 3/4 [1, 2]: 0 n (%) | Any TRAE, any grade [1, 2]: 17 (94) n (%) | Any TRAE, grade 3/4 [1, 2]: 10 (56) n (%) | Asthenia TRAE, any grade [1, 2]: 6 (33) n (%) | Asthenia TRAE, grade 3/4 [1, 2]: 1 (6) n (%) | Blood bilirubin increased TRAE, any grade [1, 2]: 0 n (%) | Blood bilirubin increased TRAE, grade 3/4 [1, 2]: 0 n (%) | Decreased appetite TRAE, any grade [1, 2]: 6 (33) n (%) | Decreased appetite TRAE, grade 3/4 [1, 2]: 0 n (%) | Diarrhea TRAE, any grade [1, 2]: 5 (28) n (%) | Diarrhea TRAE, grade 3/4 [1, 2]: 0 n (%) | Dysgeusia TRAE, any grade [1, 2]: 4 (22) n (%) | Dysgeusia TRAE, grade 3/4 [1, 2]: 0 n (%) | Dyspepsia TRAE, any grade [1, 2]: 2 (11) n (%) | Dyspepsia TRAE, grade 3/4 [1, 2]: 0 n (%) | Fatigue TRAE, any grade [1, 2]: 2 (11) n (%) | Fatigue TRAE, grade 3/4 [1, 2]: 0 n (%) | Hyperbilirubinemia TRAE, any grade [1, 2]: 3 (17) n (%) | Hyperbilirubinemia TRAE, grade 3/4 [1, 2]: 0 n (%) | Hyperglycemia TRAE, any grade [1, 2]: 1 (6) n (%) | Hyperglycemia TRAE, grade 3/4 [1, 2]: 0 n (%) | Hypophosphatemia TRAE, any grade [1, 2]: 1 (6) n (%) | Hypophosphatemia TRAE, grade 3/4 [1, 2]: 0 n (%) | Hypotension TRAE, any grade [1, 2]: 0 n (%) | Hypotension TRAE, grade 3/4 [1, 2]: 0 n (%) | Insomnia TRAE, any grade [1, 2]: 1 (6) n (%) | Insomnia TRAE, grade 3/4 [1, 2]: 0 n (%) | Intracranial hemorrhage TRAE, any grade [1, 2]: 0 n (%) | Intracranial hemorrhage TRAE, grade 3/4 [1, 2]: 0 n (%) | Leukopenia TRAE, any grade [1, 2]: 2 (11) n (%) | Leukopenia TRAE, grade 3/4 [1, 2]: 0 n (%) | Lymphopenia TRAE, any grade [1, 2]: 2 (11) n (%) | Lymphopenia TRAE, grade 3/4 [1, 2]: 1 (6) n (%) | Nausea TRAE, any grade [1, 2]: 12 (67) n (%) | Nausea TRAE, grade 3/4 [1, 2]: 0 n (%) | Neutropenia TRAE, any grade [1, 2]: 7 (39) n (%) | Neutropenia TRAE, grade 3/4 [1, 2]: 4 (22) n (%) | Pruritus TRAE, any grade [1, 2]: 0 n (%) | Pruritus TRAE, grade 3/4 [1, 2]: 0 n (%) | Rash TRAE, any grade [1, 2]: 1 (6) n (%) | Rash TRAE, grade 3/4 [1, 2]: 0 n (%) | Seizure TRAE, any grade [1, 2]: 0 n (%) | Seizure TRAE, grade 3/4 [1, 2]: 0 n (%) | Thrombocytopenia TRAE, any grade [1, 2]: 13 (72) n (%) | Thrombocytopenia TRAE, grade 3/4 [1, 2]: 9 (50) n (%) | Vomiting TRAE, any grade [1, 2]: 7 (39) n (%) | Vomiting TRAE, grade 3/4 [1, 2]: 0 n (%) | ALT increased TRAE, any grade [1, 3]: 1 (7) n (%) | ALT increased TRAE, grade 3/4 [1, 3]: 1 (7) n (%) | AST increased TRAE, any grade [1, 3]: 1 (7) n (%) | AST increased TRAE, grade 3/4 [1, 3]: 0 n (%) | Acneiform dermatitis TRAE, any grade [1, 3]: 2 (14) n (%) | Acneiform dermatitis TRAE, grade 3/4 [1, 3]: 0 n (%) | Anemia TRAE, any grade [1, 3]: 4 (29) n (%) | Anemia TRAE, grade 3/4 [1, 3]: 2 (14) n (%) | Any TRAE, any grade [1, 3]: 14 (100) n (%) | Any TRAE, grade 3/4 [1, 3]: 9 (64) n (%) | Asthenia TRAE, any grade [1, 3]: 4 (29) n (%) | Asthenia TRAE, grade 3/4 [1, 3]: 0 n (%) | Blood bilirubin increased TRAE, any grade [1, 3]: 1 (7) n (%) | Blood bilirubin increased TRAE, grade 3/4 [1, 3]: 0 n (%) | Decreased appetite TRAE, any grade [1, 3]: 4 (29) n (%) | Decreased appetite TRAE, grade 3/4 [1, 3]: 0 n (%) | Diarrhea TRAE, any grade [1, 3]: 3 (21) n (%) | Diarrhea TRAE, grade 3/4 [1, 3]: 0 n (%) | Dysgeusia TRAE, any grade [1, 3]: 4 (29) n (%) | Dysgeusia TRAE, grade 3/4 [1, 3]: 0 n (%) | Dyspepsia TRAE, any grade [1, 3]: 2 (14) n (%) | Dyspepsia TRAE, grade 3/4 [1, 3]: 0 n (%) | Fatigue TRAE, any grade [1, 3]: 5 (36) n (%) | Fatigue TRAE, grade 3/4 [1, 3]: 1 (7) n (%) | Hyperbilirubinemia TRAE, any grade [1, 3]: 2 (14) n (%) | Hyperbilirubinemia TRAE, grade 3/4 [1, 3]: 0 n (%) | Hyperglycemia TRAE, any grade [1, 3]: 0 n (%) | Hyperglycemia TRAE, grade 3/4 [1, 3]: 0 n (%) | Hypophosphatemia TRAE, any grade [1, 3]: 1 (7) n (%) | Hypophosphatemia TRAE, grade 3/4 [1, 3]: 0 n (%) | Hypotension TRAE, any grade [1, 3]: 0 n (%) | Hypotension TRAE, grade 3/4 [1, 3]: 0 n (%) | Insomnia TRAE, any grade [1, 3]: 0 n (%) | Insomnia TRAE, grade 3/4 [1, 3]: 0 n (%) | Intracranial hemorrhage TRAE, any grade [1, 3]: 0 n (%) | Intracranial hemorrhage TRAE, grade 3/4 [1, 3]: 0 n (%) | Leukopenia TRAE, any grade [1, 3]: 1 (7) n (%) | Leukopenia TRAE, grade 3/4 [1, 3]: 0 n (%) | Lymphopenia TRAE, any grade [1, 3]: 3 (21) n (%) | Lymphopenia TRAE, grade 3/4 [1, 3]: 1 (7) n (%) | Nausea TRAE, any grade [1, 3]: 11 (79) n (%) | Nausea TRAE, grade 3/4 [1, 3]: 0 n (%) | Neutropenia TRAE, any grade [1, 3]: 6 (43) n (%) | Neutropenia TRAE, grade 3/4 [1, 3]: 4 (29) n (%) | Pruritus TRAE, any grade [1, 3]: 0 n (%) | Pruritus TRAE, grade 3/4 [1, 3]: 0 n (%) | Rash TRAE, any grade [1, 3]: 0 n (%) | Rash TRAE, grade 3/4 [1, 3]: 0 n (%) | Seizure TRAE, any grade [1, 3]: 0 n (%) | Seizure TRAE, grade 3/4 [1, 3]: 0 n (%) | Thrombocytopenia TRAE, any grade [1, 3]: 10 (71) n (%) | Thrombocytopenia TRAE, grade 3/4 [1, 3]: 7 (50) n (%) | Vomiting TRAE, any grade [1, 3]: 8 (57) n (%) | Vomiting TRAE, grade 3/4 [1, 3]: 0 n (%) | ALT increased TRAE, any grade ([1]; human, in vivo): 2 (11) n (%) | TEAEs leading to discontinuation of the labelled study drug(s), patients ([1]; human, in vivo): 2 (11) 2 (11) 2 (11) n (%) | TRAEs leading to discontinuation of TMZ, related to labelled drug(s) ([1]; human, in vivo): 1 (6) 1 (6) 1 (6) n (%) | TRAEs leading to discontinuation of any study drug, related to labelled drug(s) ([1]; human, in vivo): 1 (6) 1 (6) 1 (6) n (%) | TRAEs leading to discontinuation of trotabresib, related to labelled drug(s) ([1]; human, in vivo): 1 (6) 1 (6) 1 (6) n (%)

CCNC(=O)C[C@@H]1N=C(c2ccc(Cl)cc2)c2cc(OC)ccc2-n2c(C)nnc21 [iBET-762]
Expression of the HER2-regulated gene TUBB3 (breast cancer cells): upregulated expression | Sensitivity to vinorelbine (breast cancer cells; in vitro and in PDX models): increased sensitivity to vinorelbine
